Results taken from US10351718B2, “Optical filter and imaging device” (AGC Inc., priority 2015, dated 2019).

Assays:
[1] = Absorption characteristic of the dye in dichloromethane; type: physicochemical; conditions: for λ80 (wavelength with 80% transmittance on shorter wavelength side of λmax) / λmax − λ80: dichloromethane, transmittance at λmax set to 10%; for εA (maximum absorption coefficient in a wavelength of 430 to 550 nm) / εB (maximum absorption coefficient in a wavelength of 670 to 730 nm) / εB/εA / λmax (maximum absorption wavelength): dissolved in dichloromethane
Procedure: The dyes obtained above were each dissolved in dichloromethane, and using an ultraviolet-visible spectrophotometer (made by Hitachi High Technologies Co., Ltd., U-4100 type), each spectral transmittance curve was measured, from which a maximum absorption wavelength λmax, a wavelength λ80 with which the transmittance becomes 80% on a shorter wavelength side than the maximum absorption wavelength with the transmittance at the maximum absorption wavelength set to 10%, the difference between the maximum absorption wavelength λmax and the wavelength λ80 (λmax−λ80), a maximum absorption coefficient εA in a wavelength of 430 to 550 nm, a maximum absorption coefficient εB in a wavelength of 670 to 730 nm, and a ratio of these (εB/εA) were calculated. Note that measurement of the dye (A9) was not performed because its solubility was low. Further, for each of the following spectral transmittance curves, an ultraviolet-visible spectrophotometer (made by Hitachi High Technologies Co., Ltd., U-4100 type) was used.

[2] = Solubility of dye to resin solution; type: physicochemical; conditions: 12.5 mass % polyester resin OKP850 in cyclohexanone:MIBK 1:1, 50° C.
Procedure: Regarding several kinds of the dyes obtained above, solubility to a resin solution was evaluated. In a solubility test, as the resin solution, there was used a solution having a resin concentration of 12.5 mass % that was prepared by dissolving a polyester resin (product name: OKP850 made by Osaka Gas Chemicals Co., Ltd.) in a mixed solvent (cyclohexanone:methyl isobutyl ketone (MIBK)=1:1). Results are illustrated in Table 5 together with the kinds of the used dyes. Incidentally, the temperature of the resin solution in the solubility test was 50° C., the dye was put into the resin solution, the resultant resin solution was stirred for two hours, and whether or not the dye was dissolved was observed visually. Evaluation criteria of the solubility are as follows.
A: Solubility greater than 10 mass %
B: Solubility greater than 5 mass % and 10 mass % or less
C: Solubility 5 mass % or less

| Structure (SMILES) | λ80 (wavelength with 80% transmittance on shorter wavelength side of λmax) [1] [nm] | λmax − λ80 [1] [nm] | εA (maximum absorption coefficient in a wavelength of 430 to 550 nm) [1] | εB (maximum absorption coefficient in a wavelength of 670 to 730 nm) [1] | εB/εA [1] | λmax (maximum absorption wavelength) [1] [nm] | Solubility Evaluation [2] | Solubility ([2]; stirred two hours, visual) [mass %] |
| --- | --- | --- | --- | --- | --- | --- | --- | --- |
| CCCCCCCCS(=O)(=O)Nc1cc2c(cc1C1=C([O-])C(=c3cc4c(cc3NS(=O)(=O)CCCCCCCC)=[N+](C)C(C)C4(C)C)C1=O)C(C)(C)C(C)N2C (centres unmarked) [Dye A1-1] | 630 | 61 | 0.0130 | 1 | 76.9 | 691 | C (5 mass % or less) | 1 |
| CC1N(C)c2cc(NS(=O)(=O)C(F)(F)C(F)(F)C(F)(F)C(F)(F)F)c(C3=C([O-])C(=c4cc5c(cc4NS(=O)(=O)C(F)(F)C(F)(F)C(F)(F)C(F)(F)F)=[N+](C)C(C)C5(C)C)C3=O)cc2C1(C)C (centres unmarked) [Dye A1-3] | 637 | 61 | 0.0065 | 1 | 154 | 698 | – | – |
| CC1N(C)c2cc(NS(=O)(=O)c3ccccc3C(F)(F)F)c(C3=C([O-])C(=c4cc5c(cc4NS(=O)(=O)c4ccccc4C(F)(F)F)=[N+](C)C(C)C5(C)C)C3=O)cc2C1(C)C (centres unmarked) [Dye A1-4] | 633 | 62 | 0.0104 | 1 | 96.2 | 695 | – | – |
| CCCc1ccc(S(=O)(=O)Nc2cc3c(cc2C2=C([O-])C(=c4cc5c(cc4NS(=O)(=O)c4ccc(CCC)cc4)=[N+](C)C(C)C5(C)C)C2=O)C(C)(C)C(C)N3C)cc1 (centres unmarked) [Dye A1-6] | 633 | 60 | 0.0139 | 1 | 71.9 | 693 | – | – |
| CCCCCc1ccc(S(=O)(=O)Nc2cc3c(cc2C2=C([O-])C(=c4cc5c(cc4NS(=O)(=O)c4ccc(CCCCC)cc4)=[N+](C)C(C)C5(C)C)C2=O)C(C)(C)C(C)N3C)cc1 (centres unmarked) [Dye A1-7] | 633 | 60 | 0.0147 | 1 | 68.0 | 693 | – | – |
| CC(C)N1c2cc(NS(=O)(=O)c3ccc(F)cc3)c(C3=C([O-])C(=c4cc5c(cc4NS(=O)(=O)c4ccc(F)cc4)=[N+](C(C)C)C(C)C5(C)C)C3=O)cc2C(C)(C)C1C (centres unmarked) [Dye A1-11] | 648 | 52 | 0.0110 | 1 | 90.9 | 700 | – | – |
| Cc1ccc(S(=O)(=O)Nc2cc3c(cc2C2=C([O-])C(=c4cc5c(cc4NS(=O)(=O)c4ccc(C)cc4)=[N+](C(C)C)C(C)C5(C)C)C2=O)C(C)(C)C(C)N3C(C)C)cc1 (centres unmarked) [Dye A1-12] | 648 | 52 | 0.0116 | 1 | 86.2 | 700 | – | – |
| CCCS(=O)(=O)Nc1cc2c(cc1C1=C([O-])C(=c3cc4c(cc3NS(=O)(=O)CCC)=[N+](C(C)C)C(C)C4(C)C)C1=O)C(C)(C)C(C)N2C(C)C (centres unmarked) [Dye A1-13] | 645 | 53 | 0.0113 | 1 | 88.5 | 698 | – | – |
| CCCc1ccc(S(=O)(=O)Nc2cc3c(cc2C2=C([O-])C(=c4cc5c(cc4NS(=O)(=O)c4ccc(CCC)cc4)=[N+](C(C)C)C(C)C5(C)C)C2=O)C(C)(C)C(C)N3C(C)C)cc1 (centres unmarked) [Dye A1-14] | 647 | 52 | 0.0121 | 1 | 82.6 | 699 | – | – |
| CC(C)N1c2cc(NS(=O)(=O)C(F)(F)C(F)(F)C(F)(F)C(F)(F)F)c(C3=C([O-])C(=c4cc5c(cc4NS(=O)(=O)C(F)(F)C(F)(F)C(F)(F)C(F)(F)F)=[N+](C(C)C)C(C)C5(C)C)C3=O)cc2C(C)(C)C1C (centres unmarked) [Dye A1-17] | 653 | 52 | 0.0081 | 1 | 123 | 705 | – | – |
| Cc1ccccc1S(=O)(=O)Nc1cc2c(cc1C1=C([O-])C(=c3cc4c(cc3NS(=O)(=O)c3ccccc3C)=[N+](C(C)C)C(C)C4(C)C)C1=O)C(C)(C)C(C)N2C(C)C (centres unmarked) [Dye A1-18] | 649 | 50 | 0.0110 | 1 | 90.9 | 699 | – | – |
| CCCCCc1ccc(S(=O)(=O)Nc2cc3c(cc2C2=C([O-])C(=c4cc5c(cc4NS(=O)(=O)c4ccc(CCCCC)cc4)=[N+](C(C)C)C(C)C5(C)C)C2=O)C(C)(C)C(C)N3C(C)C)cc1 (centres unmarked) [Dye A1-19] | 648 | 51 | 0.0126 | 1 | 79.4 | 699 | – | – |
| CC(C)N1c2cc(N3S(=O)(=O)C(F)(F)C(F)(F)S3(=O)=O)c(C3=C([O-])C(=c4cc5c(cc4N4S(=O)(=O)C(F)(F)C(F)(F)S4(=O)=O)=[N+](C(C)C)C(C)C5(C)C)C3=O)cc2C(C)(C)C1C (centres unmarked) [Dye A1-20] | 651 | 52 | 0.0100 | 1 | 100 | 703 | – | – |
| CCC(C)(C)N1c2cc(NS(=O)(=O)C(F)(F)F)c(C3=C([O-])C(=c4cc5c(cc4NS(=O)(=O)C(F)(F)F)=[N+](C(C)(C)CC)C(C)C5(C)C)C3=O)cc2C(C)(C)C1C (centres unmarked) [Dye A1-22] | 660 | 51 | 0.0122 | 1 | 82.0 | 711 | – | – |
| CCC(C)(C)N1c2cc(NS(=O)(=O)C(F)(F)C(F)(F)C(F)(F)C(F)(F)F)c(C3=C([O-])C(=c4cc5c(cc4NS(=O)(=O)C(F)(F)C(F)(F)C(F)(F)C(F)(F)F)=[N+](C(C)(C)CC)C(C)C5(C)C)C3=O)cc2C(C)(C)C1C (centres unmarked) [Dye A1-23] | 663 | 50 | 0.0124 | 1 | 80.6 | 713 | – | – |
| CCCCCCCCS(=O)(=O)Nc1cc2c(cc1C1=C([O-])C(=c3cc4c(cc3NS(=O)(=O)CCCCCCCC)=[N+](C(C)C)C(C)(C)C4(C)C)C1=O)C(C)(C)C(C)(C)N2C(C)C [Dye A1-24] | 651 | 49 | 0.0110 | 1 | 89.7 | 700 | – | – |
| CCCCCCCCS(=O)(=O)Nc1cc2c(cc1C1=C([O-])C(=c3cc4c(cc3NS(=O)(=O)CCCCCCCC)=[N+](C(C)C)C(C)(CC)C4(C)C)C1=O)C(C)(C)C(C)(CC)N2C(C)C (centres unmarked) [Dye A1-25] | 653 | 51 | 0.0130 | 1 | 77.6 | 704 | – | – |
| CCCCCCCCS(=O)(=O)Nc1cc2c(cc1C1=C([O-])C(=c3cc4c(cc3NS(=O)(=O)CCCCCCCC)=[N+](C(C)C)C(C)(C(C)C)C4(C)C)C1=O)C(C)(C)C(C)(C(C)C)N2C(C)C (centres unmarked) [Dye A1-26] | 654 | 53 | 0.0140 | 1 | 71.6 | 707 | – | – |
